Reference: DBAASP
In brackets after ≈: the same amount, converted by molar mass. Several values for one entry are separate records, joined by “and”; a condition that tells them apart may be missing. Identical values can stand only once.

Experiments:
Test in all cases: ≥ marks a high value that may be exact or a test limit, other limits are often not marked, values filed in µg/mL are converted to µM
[1] = system: Acinetobacter baumannii 4-MRGN
[2] = system: Pseudomonas aeruginosa ATCC 27853
[3] = system: Acinetobacter baumannii ATCC 19606
Candida albicans = system: Candida albicans
[4] = system: Corynebacterium jeikeium ATCC BAA-949
[5] = system: Escherichia coli ATCC 25922
[6] = system: Pseudomonas aeruginosa AA43
[7] = system: Pseudomonas aeruginosa ATCC 19660
[8] = system: Pseudomonas aeruginosa ME
[9] = system: Pseudomonas aeruginosa PAO1
[10] = system: Pseudomonas aeruginosa R1
Pseudomonas aeruginosa = system: Pseudomonas aeruginosa
[11] = system: Staphylococcus aureus ATCC 25923
Staphylococcus aureus = system: Staphylococcus aureus
[12] = system: Staphylococcus epidermidis ATCC 12228
[13] = system: Staphylococcus epidermidis
Staphylococcus hominis = system: Staphylococcus hominis
[14] = system: Bacillus subtilis KCTC 3068
[15] = system: Escherichia coli DSM 1103
[16] = system: Escherichia coli KCTC 1682
[17] = system: Pseudomonas aeruginosa CCARM 2092
[18] = system: Pseudomonas aeruginosa CCARM 2095
[19] = system: Pseudomonas aeruginosa CCARM 2109
[20] = system: Pseudomonas aeruginosa DSM 1117
[21] = system: Pseudomonas aeruginosa KCTC 1637
[22] = system: Salmonella typhimurium KCTC 1926
[23] = system: Staphylococcus aureus CCARM 3001
[24] = system: Staphylococcus aureus CCARM 3089
[25] = system: Staphylococcus aureus CCARM 3543
[26] = system: Staphylococcus aureus DSM 1104
[27] = system: Staphylococcus aureus KCTC 1621
[28] = system: Staphylococcus epidermidis DSM 1798
[29] = system: Staphylococcus epidermidis KCTC 1917
Acinetobacter baumannii = system: Acinetobacter baumannii
Escherichia coli K88 = system: Escherichia coli K88
Escherichia coli K99 = system: Escherichia coli K99
Escherichia coli UB1005 = system: Escherichia coli UB1005
Escherichia coli = system: Escherichia coli
Klebsiella pneumoniae = system: Klebsiella pneumoniae
[30] = system: Pseudomonas aeruginosa CICC 21625
[31] = system: Pseudomonas aeruginosa CICC 21630
[32] = system: Salmonella enterica subsp. enterica serovar Pullorum C79-13
[33] = system: Salmonella enterica subsp. enterica serovar Typhimurium ATCC 14028
[34] = system: Salmonella enterica subsp. enterica serovar Typhimurium C77-31
[35] = system: Bacillus subtilis ATCC 6633
[36] = system: Salmonella enterica subsp. enterica serovar Enteritidis BNCC 103134

**Q.** With `C[C@H](N)C(=O)N[C@H](C(=O)N[C@@H](CS)C(=O)N[C@@H](Cc1ccc(O)cc1)C(=O)N[C@H]1CSSC[C@@H](C(=O)N[C@@H](C)C(=O)N[C@H](C(=O)N[C@@H](CCCN=C(N)N)C(=O)O)[C@@H](C)O)NC(=O)[C@H](CCCN=C(N)N)NC(=O)CNC(=O)[C@H]([C@@H](C)O)NC(=O)[C@H](CCCN=C(N)N)NC1=O)[C@@H](C)O` [ATCYCRTGRCATR] as the compound, how does the MIC [1] read?
**A.** ≥ 99.9 µM

**Q.** And the MIC [2]?
**A.** > 99.9 µM

**Q.** `CC[C@H](C)[C@H](NC(=O)CN)C(=O)N[C@@H](Cc1ccccc1)C(=O)N[C@@H](CO)C(=O)N[C@@H](CCCCN)C(=O)N[C@@H](CC(C)C)C(=O)N[C@@H](C)C(=O)NCC(=O)N[C@@H](CCCCN)C(=O)N[C@@H](CCCCN)C(=O)N[C@H](C(=O)N[C@@H](CCCCN)C(=O)N[C@@H](CC(N)=O)C(=O)N[C@@H](CC(C)C)C(=O)N[C@@H](CC(C)C)C(=O)N[C@H](C(=O)N[C@@H](CO)C(=O)NCC(=O)N[C@@H](CC(C)C)C(=O)N[C@@H](CCCCN)C(=O)NCC(N)=O)[C@@H](C)CC)[C@@H](C)CC` [GIFSKLAGKKIKNLLISGLKG] was tested. Which MIC [3] did it give?
**A.** 1.56 µM (≈ 3.41 µg/mL)

**Q.** And the MIC (Candida albicans)?
**A.** 2.83 µM (≈ 6.18 µg/mL)

**Q.** And the MIC [4]?
**A.** 0.125 µM (≈ 0.273 µg/mL)

**Q.** And the MIC [5]?
**A.** 1.56 µM (≈ 3.41 µg/mL)

**Q.** What about the MIC [6] of the same compound?
**A.** 4.03 µM (≈ 8.8 µg/mL)

**Q.** And the MIC [7]?
**A.** 16 µM (≈ 35 µg/mL)

**Q.** What about the MIC [2] of the same compound?
**A.** 4 µM and 3.12 µM

**Q.** And the MIC [8]?
**A.** 8 µM (≈ 17.5 µg/mL)

**Q.** What about the MIC [9] of the same compound?
**A.** 4 µM and > 2.01 µM

**Q.** What about the MIC [10] of the same compound?
**A.** 2 µM (≈ 4.37 µg/mL)

**Q.** And the MIC (Pseudomonas aeruginosa)?
**A.** 4 µM (≈ 8.74 µg/mL)

**Q.** And the MIC [11]?
**A.** > 100 µM

**Q.** And the MIC (Staphylococcus aureus)?
**A.** 64 µM and 100 µM

**Q.** And the MIC [12]?
**A.** 3.12 µM (≈ 6.82 µg/mL)

**Q.** And the MIC [13]?
**A.** 8 µM (≈ 17.5 µg/mL)

**Q.** What about the MIC (Staphylococcus hominis) of the same compound?
**A.** 1 µM (≈ 2.18 µg/mL)

**Q.** For `CC(C)[C@H](NC(=O)[C@H](CCCCN)NC(=O)[C@H](CCCN=C(N)N)NC(=O)[C@H](CCCCN)NC(=O)[C@H](CCCCN)NC(=O)[C@H](CCCCN)NC(=O)[C@@H]1CCCN1C(=O)[C@H](CCC(N)=O)NC(=O)[C@H](CO)NC(=O)[C@H](Cc1c[nH]c2ccccc12)NC(=O)[C@H](CCC(=O)O)NC(=O)[C@@H](NC(=O)[C@H](Cc1c[nH]c2ccccc12)NC(=O)[C@H](Cc1c[nH]c2ccccc12)NC(=O)[C@@H](NC(=O)[C@H](CCC(=O)O)NC(=O)[C@H](Cc1c[nH]c2ccccc12)NC(=O)[C@H](Cc1c[nH]c2ccccc12)NC(=O)[C@@H](NC(=O)[C@H](CCC(=O)O)NC(=O)[C@@H](N)CCCCN)[C@@H](C)O)[C@@H](C)O)[C@@H](C)O)C(=O)O` [KETWWETWWTEWSQPKKKRKV], which MIC [14] is on record?
**A.** 8 µM (≈ 22.8 µg/mL)

**Q.** What about the MIC [15] of the same compound?
**A.** ≥ 87 µM

**Q.** What about the MIC [16] of the same compound?
**A.** ≥ 32 µM

**Q.** And the MIC [17]?
**A.** ≥ 32 µM

**Q.** What about the MIC [18] of the same compound?
**A.** ≥ 64 µM

**Q.** What about the MIC [19] of the same compound?
**A.** ≥ 32 µM

**Q.** What about the MIC [20] of the same compound?
**A.** ≥ 87 µM

**Q.** What about the MIC [21] of the same compound?
**A.** ≥ 64 µM

**Q.** And the MIC [22]?
**A.** ≥ 64 µM

**Q.** And the MIC [23]?
**A.** ≥ 64 µM

**Q.** And the MIC [24]?
**A.** ≥ 64 µM

**Q.** What about the MIC [25] of the same compound?
**A.** ≥ 64 µM

**Q.** What about the MIC [26] of the same compound?
**A.** ≥ 87 µM

**Q.** What about the MIC [27] of the same compound?
**A.** ≥ 64 µM

**Q.** What about the MIC [28] of the same compound?
**A.** ≥ 87 µM

**Q.** And the MIC [29]?
**A.** ≥ 64 µM

**Q.** Which results are given for `CC(C)[C@H](N)C(=O)N[C@@H](CCCCN)C(=O)N1CCC[C@H]1C(=O)N[C@H](C(=O)N[C@H](C(=O)N[C@@H](CCCCN)C(=O)N1CCC[C@H]1C(=O)N[C@H](C(=O)N[C@H](C(=O)N[C@@H](CCCCN)C(=O)N1CCC[C@H]1C(=O)N[C@H](C(=O)N[C@H](C(=O)N[C@@H](CCCCN)C(=O)N1CCC[C@H]1C(=O)N[C@H](C(=O)N[C@H](C(=O)N[C@@H](CCCCN)C(=O)N1CCC[C@H]1C(=O)N[C@H](C(=O)N[C@H](C(=O)N[C@@H](CCCCN)C(=O)N1CCC[C@H]1C(=O)N[C@H](C(N)=O)C(C)C)C(C)C)C(C)C)C(C)C)C(C)C)C(C)C)C(C)C)C(C)C)C(C)C)C(C)C)C(C)C` [VKPVVKPVVKPVVKPVVKPVVKPV]?
**A.** MIC (Acinetobacter baumannii): ≥ 64 µM; MIC [5]: > 64 µM; MIC (Escherichia coli K88): ≥ 64 µM; MIC (Escherichia coli K99): ≥ 64 µM; MIC (Escherichia coli UB1005): ≥ 64 µM; MIC (Escherichia coli): > 64 µM; MIC (Klebsiella pneumoniae): > 64 µM; MIC [2]: > 64 µM; MIC [30]: ≥ 64 µM; MIC [31]: ≥ 64 µM; MIC [9]: > 64 µM; MIC (Pseudomonas aeruginosa): > 64 µM; MIC [32]: ≥ 64 µM; MIC [33]: > 64 µM; MIC [34]: ≥ 64 µM

**Q.** Which results are given for `NC(=O)C[C@H](NC(=O)[C@H](Cc1cnc[nH]1)NC(=O)[C@H](CC(N)=O)NC(=O)[C@@H](N)Cc1ccc(O)cc1)C(=O)N[C@@H](Cc1ccccc1)C(=O)O` [YNHNF]?
**A.** MIC [35]: ≥ 300 µM; MIC [5]: 150 µM (≈ 104 µg/mL); MIC [36]: ≥ 300 µM; MIC [11]: 300 µM (≈ 208 µg/mL)
